According to ChEMBL document CHEMBL5375954, “Discovery and Evaluation of C6-Substituted Pyrazolopyrimidine-Based Bisphosphonate Inhibitors of the Human Geranylgeranyl Pyrophosphate Synthase and Evaluation of Their Antitumor Efficacy in Multiple Myeloma, Pancreatic Ductal Adenocarcinoma, and Colorectal Cancer” (J Med Chem, 2023):
The source made the active and inactive calls. The calls are words filed in the database; no cut-off is given here.

Legend:
[1] = Toxicity in NSG mouse xenografted with human MIA PaCa-2 cells assessed as inflammation at site of injection at 3 mg/kg, ip administered 3 times a week for 26 days and measured daily; type: organism-based; conditions: in vivo, time 26 day
[2] = Hepatotoxicity in female NSG mouse xenografted with human RPMI-8226 cells assessed as foci of necrosis at 3 mg/kg, ip administered 3 times a week for 26 days and measured 48 hrs post last dose by H and E staining based assay; type: toxicity, organism-based; conditions: in vivo, 672 h, time 28 day
[3] = Toxicity in NSG mouse xenografted with human MIA PaCa-2 cells assessed as body weight gain at 3 mg/kg, ip administered 3 times a week for 26 days and measured daily; type: organism-based; conditions: in vivo, time 26 day
[4] = test system: MIA PaCa-2; test: Induction of apoptosis in human MIA PaCa-2 cells assessed as late apoptotic cells at 1 uM incubated for 72 hrs by APC-Annexin-V/7-AAD staining based flow cytometry (reference value: 0.29%); type: functional
[5] = Hepatotoxicity in female NSG mouse xenografted with human RPMI-8226 cells assessed as prominent nucleoli at 3 mg/kg, ip administered 3 times a week for 26 days and measured 48 hrs post last dose by H and E staining based assay; type: toxicity, organism-based; conditions: in vivo, 672 h, time 28 day
[6] = Toxicity in NSG mouse xenografted with human MIA PaCa-2 cells assessed as signs of distress at 3 mg/kg, ip administered 3 times a week for 26 days and measured daily; type: organism-based; conditions: in vivo, time 26 day
[7] = test system: HCT-116; test: Induction of apoptosis in human HCT-116 cells assessed as late apoptotic cells at 1 uM incubated for 72 hrs by APC-Annexin-V/7-AAD staining based flow cytometry (reference value: 0%); type: functional
[8] = test system: MIA PaCa-2; test: Antitumor activity against human MIA PaCa-2 cells xenografted in NSG mouse assessed as improvement in animal survival rate at 3 mg/kg, ip administered 3 times a week for 26 days and measured 60 days post last dose; type: functional, organism-based; conditions: time 86.0 day
[9] = Toxicity in NSG mouse xenografted with human RPMI-8226 cells assessed as reduction in body weight at 3 mg/kg, ip administered 3 times a week for 26 days and measured daily; type: organism-based; conditions: in vivo, time 26 day
[10] = test system: MIA PaCa-2; test: Induction of apoptosis in human MIA PaCa-2 cells assessed as early apoptotic cells at 1 uM incubated for 72 hrs by APC-Annexin-V/7-AAD staining based flow cytometry (reference value: 1.26%); type: functional
[11] = MRT in Sprague-Dawley rat at 3 mg/kg, iv measured for 24 hrs by LC-MS/MS analysis; type: ADME, organism-based; conditions: in vivo
[12] = AUC(0 to infinity) in Sprague-Dawley rat at 3 mg/kg, iv measured for 24 hrs by LC-MS/MS analysis; type: ADME, organism-based; set-up: dose 3 mg/kg, time 24 hrs, route iv; conditions: in vivo
[13] = Hepatotoxicity in male NSG mouse xenografted with human RPMI-8226 cells assessed as serum ALT level at 3 mg/kg, ip administered 3 times a week for 26 days and measured 48 hrs post last dose (reference value: 35 to 40 IU/L); type: toxicity, organism-based; conditions: in vivo, 672 h, time 28 day
[14] = test system: HCT-116; test: cells; conditions: Homo sapiens, HCT-116, 72 h
[15] = Metabolic stability in Sprague-Dawley rat liver microsomes assessed as compound remaining incubated for 45 mins in presence of NADPH by LC-MS/MS analysis; type: ADME, Microsome; conditions: 0.75 h
[16] = Metabolic stability in CD-1 mouse liver microsomes assessed as compound remaining incubated for 45 mins in presence of NADPH by LC-MS/MS analysis; type: ADME, Microsome; conditions: 0.75 h
[17] = test system: RPMI-8226; test: Antiproliferative activity against human RPMI-8226 cells harboring KRAS G12A mutant at 0.1 to 10000 nM incubated for 72 hrs by MTS assay; type: functional, cell-based; conditions: dose 0.1-10000 nM
[18] = target: T1, Geranylgeranyl pyrophosphate synthase (Homo sapiens, UniProt O95749); test: Inhibition of N-terminal His6 tagged human GGPPS expressed in Escherichia coli BL21(DE3) cells in presence of FPP and [14C]IPP by scintillation counting analysis
T1 sequence (O95749 whole entry): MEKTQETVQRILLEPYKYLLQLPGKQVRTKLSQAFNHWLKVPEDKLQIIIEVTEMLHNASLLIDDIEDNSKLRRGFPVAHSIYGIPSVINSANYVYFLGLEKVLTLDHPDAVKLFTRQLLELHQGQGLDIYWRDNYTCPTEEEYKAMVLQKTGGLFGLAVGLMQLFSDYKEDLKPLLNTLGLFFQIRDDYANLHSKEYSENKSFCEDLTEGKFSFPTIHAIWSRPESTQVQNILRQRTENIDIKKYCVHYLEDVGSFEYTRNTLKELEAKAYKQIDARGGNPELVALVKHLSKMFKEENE

[19] = Hepatotoxicity in female NSG mouse xenografted with human RPMI-8226 cells assessed as vasculitis or perivasculitis at 3 mg/kg, ip administered 3 times a week for 26 days and measured 48 hrs post last dose by H and E staining based assay; type: toxicity, organism-based; conditions: in vivo, 672 h, time 28 day
[20] = Hepatotoxicity in male NSG mouse xenografted with human RPMI-8226 cells assessed as foci of necrosis at 3 mg/kg, ip administered 3 times a week for 26 days and measured 48 hrs post last dose by H and E staining based assay; type: toxicity, organism-based; conditions: in vivo, 672 h, time 28 day
[21] = Cytotoxicity against human IMR-90 cells assessed as inhibition of cell growth at 10 uM incubated for 72 hrs by MTS assay relative to control; type: toxicity, cell-based
[22] = target: T2, Farnesyl pyrophosphate synthase (Homo sapiens) (UniProt P14324); test: Inhibition of N-terminally His6-tagged recombinant human FPPS expressed in Escherichia coli BL21(DE3) cells using […] and [14C]IPP as substrate at 10 uM preincubated for 10 mins followed by substrate addition by scintillation counting analysis relative to control
T2 sequence (whole entry): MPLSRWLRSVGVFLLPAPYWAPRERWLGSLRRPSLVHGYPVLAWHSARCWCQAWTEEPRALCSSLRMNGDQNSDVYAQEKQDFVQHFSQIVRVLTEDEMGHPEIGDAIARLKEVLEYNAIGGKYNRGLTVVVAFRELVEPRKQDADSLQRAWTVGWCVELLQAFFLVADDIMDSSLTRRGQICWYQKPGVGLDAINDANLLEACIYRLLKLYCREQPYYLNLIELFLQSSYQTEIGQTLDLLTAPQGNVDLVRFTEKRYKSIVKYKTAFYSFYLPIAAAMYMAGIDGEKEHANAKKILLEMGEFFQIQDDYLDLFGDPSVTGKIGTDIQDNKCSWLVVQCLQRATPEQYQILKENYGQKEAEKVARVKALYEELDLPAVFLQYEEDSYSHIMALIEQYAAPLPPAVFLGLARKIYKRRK

[23] = target: Cytochrome P450 2D6 (Homo sapiens, UniProt P10635); test: Inhibition of CYP2D6 (unknown origin); type: ADME
Chain of Cytochrome P450 2D6 (P10635 whole entry): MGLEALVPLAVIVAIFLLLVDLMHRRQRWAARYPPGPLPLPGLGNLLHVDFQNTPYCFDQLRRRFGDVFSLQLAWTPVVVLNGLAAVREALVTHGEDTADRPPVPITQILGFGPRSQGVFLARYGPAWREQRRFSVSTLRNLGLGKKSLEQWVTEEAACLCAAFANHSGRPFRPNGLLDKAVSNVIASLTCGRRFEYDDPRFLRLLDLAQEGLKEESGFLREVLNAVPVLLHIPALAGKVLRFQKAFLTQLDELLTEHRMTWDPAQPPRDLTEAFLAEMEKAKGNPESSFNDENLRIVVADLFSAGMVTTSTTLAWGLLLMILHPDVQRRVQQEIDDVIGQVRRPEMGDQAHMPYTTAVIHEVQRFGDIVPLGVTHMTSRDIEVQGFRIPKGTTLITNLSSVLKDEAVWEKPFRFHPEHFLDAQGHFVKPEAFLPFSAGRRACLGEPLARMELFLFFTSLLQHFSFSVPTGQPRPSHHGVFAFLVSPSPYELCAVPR

[24] = target: Cytochrome P450 3A4 (Homo sapiens, UniProt P08684); test: Inhibition of CYP3A4 (unknown origin); type: ADME
Chain of Cytochrome P450 3A4 (P08684 whole entry): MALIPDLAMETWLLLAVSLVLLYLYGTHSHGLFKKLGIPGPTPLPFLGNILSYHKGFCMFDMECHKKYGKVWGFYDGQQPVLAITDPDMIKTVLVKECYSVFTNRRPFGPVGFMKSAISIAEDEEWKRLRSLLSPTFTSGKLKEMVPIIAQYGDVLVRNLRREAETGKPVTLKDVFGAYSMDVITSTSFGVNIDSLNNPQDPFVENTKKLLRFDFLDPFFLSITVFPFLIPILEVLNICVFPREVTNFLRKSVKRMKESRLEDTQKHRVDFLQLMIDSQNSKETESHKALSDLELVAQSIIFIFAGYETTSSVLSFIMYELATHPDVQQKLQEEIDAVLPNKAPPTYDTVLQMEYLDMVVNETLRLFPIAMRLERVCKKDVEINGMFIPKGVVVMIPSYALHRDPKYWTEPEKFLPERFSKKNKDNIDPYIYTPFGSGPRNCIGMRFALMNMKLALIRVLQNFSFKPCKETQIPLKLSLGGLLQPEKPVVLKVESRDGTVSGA

[25] = target: Cytochrome P450 2C9 (Homo sapiens, UniProt P11712); test: Inhibition of CYP2C9 (unknown origin); type: ADME
Chain of Cytochrome P450 2C9 (P11712 whole entry): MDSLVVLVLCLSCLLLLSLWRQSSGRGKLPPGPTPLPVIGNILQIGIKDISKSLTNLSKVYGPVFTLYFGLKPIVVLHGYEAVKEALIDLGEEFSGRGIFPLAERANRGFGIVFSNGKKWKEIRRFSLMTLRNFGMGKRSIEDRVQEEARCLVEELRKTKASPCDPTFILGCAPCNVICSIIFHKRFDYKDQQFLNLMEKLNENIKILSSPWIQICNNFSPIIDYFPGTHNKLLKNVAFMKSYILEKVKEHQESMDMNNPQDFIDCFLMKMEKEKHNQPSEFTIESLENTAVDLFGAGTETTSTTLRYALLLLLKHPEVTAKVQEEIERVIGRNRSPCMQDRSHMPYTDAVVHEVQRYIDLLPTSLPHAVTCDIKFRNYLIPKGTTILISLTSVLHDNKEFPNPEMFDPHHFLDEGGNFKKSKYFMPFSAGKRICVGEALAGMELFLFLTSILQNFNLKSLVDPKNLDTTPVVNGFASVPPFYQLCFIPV

[26] = Cytotoxicity against wild type mouse normal ductal organoid [N(10128)] at 1 uM incubated for 72 hrs by CellTiter-Glo luminescence based analysis; type: toxicity, tissue-based
[27] = Toxicity in NSG mouse xenografted with human MIA PaCa-2 cells assessed as morbidity at 3 mg/kg, ip administered 3 times a week for 26 days and measured daily; type: organism-based; conditions: in vivo, time 26 day

In the case of Cn1ncc2c(NC(P(=O)(O)O)P(=O)(O)O)nc(-c3cccc(C(=O)Nc4ccc(C(F)(F)F)cc4)c3)nc21, the Activity [1] is reported as “Non-Toxic”, the Activity [2] is reported as “Non-Toxic” and the Activity [3] is reported as “Toxic”. The Activity [4] was 41%, the Activity [5] was “Non-Toxic” and the Activity [6] was “Non-Toxic”. The Activity [7] was 18%, the Activity [8] was “Active” and the Activity [9] was “Non-Toxic”. For the same molecule, the Activity [10] was 13.5%, the MRT [11] was 4.68 h and the AUC(0-inf) [12] was 156 µg·h/mL. The Activity [13] was 42 IU/L, the EC50 [14] was 580 nM and the Stability [15] was 89.7%. The Stability [16] was 103%, the Activity [17] was “Active” and the IC50 [18] was 12 nM. For the same molecule, the Activity [19] was “Non-Toxic”, the Activity [20] was “Non-Toxic” and the inhibition at 72 h, 10 µM [21] was about 20%. For the same molecule, the inhibition [22] was under 10%, the IC50 [23] was over 40000 nM and the IC50 [24] was over 40000 nM. For the same molecule, the IC50 [25] was over 40000 nM, the Activity [26] was “Non-Toxic” and the Activity [27] was “Non-Toxic”.
